Literature values in US7132450B2, “Hepatic disorder suppressant” (Kagome Co., Ltd., priority 2000, dated 2006).

Columns and labels:
NO and O2^− generation = conditions: reported in literature
[1] = reported in literature

| SMILES | inhibitory effect on NO and O2^− generation (NO and O2^− generation) | growth suppressing effect [1] |
| --- | --- | --- |
| CCCCC/C=C\C/C=C\CCCCC/C=C/C(=O)CC(O)COC(C)=O (stereo not drawn) [Compound 4] | has inhibitory effect on NO and O2^− generation | – |
| CCCCC/C=C\C/C=C\CCCCCCCC(=O)CC(O)COC(C)=O (stereo not drawn) [Compound 5, persin] | inhibitory effect on NO and O2^− generation | various growth suppressing effect |
